Results taken from ChEMBL document CHEMBL5143704, “Discovery of 2,4-diarylaminopyrimidine derivatives bearing dithiocarbamate moiety as novel ALK inhibitors” (Bioorg Med Chem, 2022).

Experiments:
NCI-H2228 [1] = test: Induction of apoptosis in human NCI-H2228 cells assessed as viable cells at 0.2 uM incubated for 48 hrs by annexinV-FITC/propidium iodide staining based flow cytometry analysis (reference value: 93.63%); assay type: functional; details: read-out: Activity
NCI-H2228 [2] = test: Induction of apoptosis in human NCI-H2228 cells assessed as viable cells at 0.6 uM incubated for 48 hrs by annexinV-FITC/propidium iodide staining based flow cytometry analysis (reference value: 93.63%); assay type: functional; details: read-out: Activity
NCI-H2228 [3] = test: Induction of apoptosis in human NCI-H2228 cells assessed as viable cells at 1.8 uM incubated for 48 hrs by annexinV-FITC/propidium iodide staining based flow cytometry analysis (reference value: 93.63%); assay type: functional; details: read-out: Activity
NCI-H2228 [4] = test: Induction of apoptosis in human NCI-H2228 cells assessed as early apoptotic cells at 0.2 uM incubated for 48 hrs by annexinV-FITC/propidium iodide staining based flow cytometry analysis (reference value: 1.84%); assay type: functional
NCI-H2228 [5] = test: Induction of apoptosis in human NCI-H2228 cells assessed as early apoptotic cells at 0.6 uM incubated for 48 hrs by annexinV-FITC/propidium iodide staining based flow cytometry analysis (reference value: 1.84%); assay type: functional
NCI-H2228 [6] = test: Induction of apoptosis in human NCI-H2228 cells assessed as early apoptotic cells at 1.8 uM incubated for 48 hrs by annexinV-FITC/propidium iodide staining based flow cytometry analysis (reference value: 1.84%); assay type: functional
NCI-H2228 [7] = test: Induction of apoptosis in human NCI-H2228 cells assessed as late apoptotic cells at 0.2 uM incubated for 48 hrs by annexinV-FITC/propidium iodide staining based flow cytometry analysis (reference value: 2.40%); assay type: functional
NCI-H2228 [8] = test: Induction of apoptosis in human NCI-H2228 cells assessed as late apoptotic cells at 0.6 uM incubated for 48 hrs by annexinV-FITC/propidium iodide staining based flow cytometry analysis (reference value: 2.40%); assay type: functional
NCI-H2228 [9] = test: Induction of apoptosis in human NCI-H2228 cells assessed as late apoptotic cells at 1.8 uM incubated for 48 hrs by annexinV-FITC/propidium iodide staining based flow cytometry analysis (reference value: 2.40%); assay type: functional
NCI-H2228 [10] = test: Induction of apoptosis in human NCI-H2228 cells assessed as necrotic at 0.2 uM incubated for 48 hrs by annexinV-FITC/propidium iodide staining based flow cytometry analysis (reference value: 2.12%); assay type: functional
NCI-H2228 [11] = test: Induction of apoptosis in human NCI-H2228 cells assessed as necrotic at 0.6 uM incubated for 48 hrs by annexinV-FITC/propidium iodide staining based flow cytometry analysis (reference value: 2.12%); assay type: functional
NCI-H2228 [12] = test: Induction of apoptosis in human NCI-H2228 cells assessed as necrotic at 1.8 uM incubated for 48 hrs by annexinV-FITC/propidium iodide staining based flow cytometry analysis (reference value: 2.12%); assay type: functional
NCI-H2228 [13] = test: Induction of cell cycle arrest in human NCI-H2228 cells assessed as accumulation of cells at G1 phase at 0.2 uM incubated for 48 hrs propidium iodide staining based flow cytometric analysis (reference value: 59.82%); assay type: functional
NCI-H2228 [14] = test: Induction of cell cycle arrest in human NCI-H2228 cells assessed as accumulation of cells at G1 phase at 0.6 uM incubated for 48 hrs propidium iodide staining based flow cytometric analysis (reference value: 59.82%); assay type: functional
NCI-H2228 [15] = test: Induction of cell cycle arrest in human NCI-H2228 cells assessed as accumulation of cells at G1 phase at 1.8 uM incubated for 48 hrs propidium iodide staining based flow cytometric analysis (reference value: 59.82%); assay type: functional
NCI-H2228 [16] = test: Induction of cell cycle arrest in human NCI-H2228 cells assessed as accumulation of cells at S phase at 0.2 uM incubated for 48 hrs propidium iodide staining based flow cytometric analysis (reference value: 28.16%); assay type: functional
NCI-H2228 [17] = test: Induction of cell cycle arrest in human NCI-H2228 cells assessed as accumulation of cells at S phase at 0.6 uM incubated for 48 hrs propidium iodide staining based flow cytometric analysis (reference value: 28.16%); assay type: functional
NCI-H2228 [18] = test: Induction of cell cycle arrest in human NCI-H2228 cells assessed as accumulation of cells at S phase at 1.8 uM incubated for 48 hrs propidium iodide staining based flow cytometric analysis (reference value: 28.16%); assay type: functional
NCI-H2228 [19] = test: Induction of cell cycle arrest in human NCI-H2228 cells assessed as accumulation of cells at G2/M phase at 0.2 uM incubated for 48 hrs propidium iodide staining based flow cytometric analysis (reference value: 12.02%); assay type: functional
NCI-H2228 [20] = test: Induction of cell cycle arrest in human NCI-H2228 cells assessed as accumulation of cells at G2/M phase at 0.6 uM incubated for 48 hrs propidium iodide staining based flow cytometric analysis (reference value: 12.02%); assay type: functional
NCI-H2228 [21] = test: Induction of cell cycle arrest in human NCI-H2228 cells assessed as accumulation of cells at G2/M phase at 1.8 uM incubated for 48 hrs propidium iodide staining based flow cytometric analysis (reference value: 12.02%); assay type: functional
KARPAS-299 = test: cells; details: Homo sapiens, KARPAS-299, 96 h
Description: Antiproliferative activity against NPM-ALK positive human KARPAS-299 cells assessed as inhibition of cell growth incubated for 96 hrs by CCK-8 assay

NCI-H2228 [22] = test: cells; details: Homo sapiens, NCI-H2228, 96 h
Description: Antiproliferative activity against EML4-ALK positive human NCI-H2228 cells assessed as inhibition of cell growth incubated for 96 hrs by MTT assay

A549 = test: cells; details: Homo sapiens, A549, 96 h
Description: Antiproliferative activity against ALK-negative human A549 cells assessed as inhibition of cell growth incubated for 96 hrs by MTT assay

HCT-116 = test: cells; details: Homo sapiens, HCT-116, 96 h
Description: Antiproliferative activity against ALK-negative human HCT-116 cells assessed as inhibition of cell growth incubated for 96 hrs by MTT assay

Cc1cc(Nc2ncc(Cl)c(Nc3ccccc3S(=O)(=O)C(C)C)n2)c(OC(C)C)cc1C1CCN(C(=O)SCC(=S)N2CCS(=O)(=O)CC2)CC1 was tested, and the viability at 0.2 µM (NCI-H2228 [1]) was 89.8%, the viability at 0.6 µM (NCI-H2228 [2]) was 84.4% and the viability at 1.8 µM (NCI-H2228 [3]) was 79.1%. It also gave an Activity (NCI-H2228 [4]) of 4.31%, an Activity (NCI-H2228 [5]) of 5.7% and an Activity (NCI-H2228 [6]) of 8.84%. The Activity (NCI-H2228 [7]) was 3.65%, the Activity (NCI-H2228 [8]) was 6.37% and the Activity (NCI-H2228 [9]) was 8.06%. It also gave an Activity (NCI-H2228 [10]) of 2.24%, an Activity (NCI-H2228 [11]) of 3.5% and an Activity (NCI-H2228 [12]) of 4.04%. The Activity (NCI-H2228 [13]) was 59.7%, the Activity (NCI-H2228 [14]) was 59.11% and the Activity (NCI-H2228 [15]) was 56.55%. The Activity (NCI-H2228 [16]) was 24.71%, the Activity (NCI-H2228 [17]) was 22.74% and the Activity (NCI-H2228 [18]) was 16.1%. For the same compound, the Activity (NCI-H2228 [19]) was 15.59%, the Activity (NCI-H2228 [20]) was 18.15% and the Activity (NCI-H2228 [21]) was 27.35%. The IC50 (KARPAS-299) was 70 nM, the IC50 (NCI-H2228 [22]) was 70 nM and the IC50 (A549) was > 10000 nM. The IC50 (HCT-116) was 5530 nM.
